pEC50: −log10 of the molar value. A value given as a limit tells only on which side of the number the result lay.

The target of one assay is T1, human MrgX2 receptor (Homo sapiens, UniProt Q96LB1).
T1 construct: expressed in transfected cells; host or cells: NIH3T3
T1 sequence (Q96LB1 1-330): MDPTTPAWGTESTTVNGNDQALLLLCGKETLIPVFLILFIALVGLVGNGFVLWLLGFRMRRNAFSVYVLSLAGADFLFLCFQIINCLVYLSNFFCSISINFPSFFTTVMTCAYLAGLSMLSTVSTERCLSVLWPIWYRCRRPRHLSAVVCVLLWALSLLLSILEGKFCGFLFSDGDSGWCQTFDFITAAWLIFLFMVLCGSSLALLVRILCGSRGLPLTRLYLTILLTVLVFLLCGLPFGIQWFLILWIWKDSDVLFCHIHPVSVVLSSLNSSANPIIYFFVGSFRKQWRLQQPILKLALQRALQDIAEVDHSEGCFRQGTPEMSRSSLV
The assay can be described thus: Receptor Selection and Amplification Technology (R-SAT) functional assay, transfected NIH3T3 cells. The class given is cell-based. Conditions: for Human-MrgX2 Eff(%): percent maximal activation relative to STIA. How it is done: (§1) The functional receptor assay, Receptor Selection and Amplification Technology (R-SAT), was used to investigate the pharmacological properties of test compounds on MRGX1 or MRGX2 receptors. R-SAT is disclosed in U.S. Pat. Nos. 5,707,798, 5,912,132, and 5,955,281, each of which is incorporated by reference herein in its entirety, including any drawings.
(§2) Briefly, NIH3T3 cells were grown in 96-well tissue culture plates to 70-80% confluence. Cells were transfected for 16-20 h with plasmid DNAs using Polyfect (Qiagen Inc.) and the manufacturer's protocols. R-SATs were generally performed with 4 ng/well of receptor and 20 ng/well of β-galactosidase plasmid DNA. The human MrgX1, simian MrgX1, human MrgX2 and simian MrgX2 receptor genes were amplified by PCR from genomic DNA using oligodeoxynucleotide primers as described in U.S. patent application Ser. No. 11/359,209, which is incorporated by reference herein in its entirety, including any drawings. For large-scale transfections, cells were transfected for 16-20 h, then trypsinized and frozen in DMSO. Frozen cells were later thawed, plated at ˜10,000 cells per well of a 96 half-area well plate that contained test compound. With both methods, cells were then grown in a humidified atmosphere with 5% ambient CO2 for five days. The medium was then removed from the plates and marker gene activity was measured by the addition of the β-galactosidase substrate o-nitrophenyl β-D-galactopyranoside (ONPG, in PBS with 0.5% NP-40). The resulting […] reaction was measured in a spectrophotometric plate reader (Titertek Inc.) at 420 nm. All data were analyzed using the computer program XLFit (IDBSm). Efficacy is defined as the percent maximal activation compared to activation by a control compound (BAM22 in the case of human or simian MRGX1, STIA or Cortistatin-14 in the case of human or simian MRGX2). pEC50 is the negative of log(EC50), where EC50 is the calculated molar concentration of test compound that produces 50% of maximum activation.
(§3) Efficacy is reported relative to the ligands Bam22 for MrgX1 and STIA for MrgX2.

In another assay the target is simian MrgX1 receptor (Macaca mulatta, UniProt A0A5F7ZSN8). Described as above. The class given is cell-based, rhesus monkey. Particulars: percent maximal activation relative to Bam22, read-out: Monkey-MrgX1 Eff(%). As for the experimental part:
as §1, §2, §3

The next assay deals with T2, simian MrgX2 receptor (Macaca mulatta, UniProt Q4QXU5).
T2 construct: expressed in transfected cells; host or cells: NIH3T3
Described as above. The class given is cell-based, rhesus monkey. Conditions: for Monkey-MrgX2 Eff(%): percent maximal activation relative to STIA. How it is done:
as §1, §2, §3

In assay [1] the target is T3, human MrgX1 receptor (Homo sapiens, UniProt Q96LB2). The assay can be described thus: Intracellular calcium mobilization (Fura-2) in transfected cells. The class given is cell-based. Details: expressed in transfected cells. Conditions: for MrgX1 pEC50: human MrgX1; for MrgX1 Eff %: normalized to response to BAM22 (100%). As for the experimental part:
1. CHO-K1 cells transfected with human MrgX1, simian MrgX1, human MrgX2 and simian MrgX2 receptors or a control receptor at a density 1-3×10^6 cells/mL were washed with phosphate-buffered saline.
2. Cells were loaded with 2 μM Fura-2 and analyzed with respect to the rise in intracellular calcium in the presence or absence of varying concentration of test compound.
3. The response was compared to that elicited by the application of the standard reference ligands BAM22 or Cortistatin-14 at 100 nM.
4. Intracellular free calcium concentrations were calculated using the formula:
[formula] • where Kd for Fura-2 is 224 nM, Fmax is the fluorescence in the presence of 0.04% Triton-X100 and Fmin is the fluorescence obtained after the addition of 5 mM EGTA in 30 mM Tris-HCl, pH7.4.
Background: Calcium flux is commonly read through the fluorescence of an indicator in the cells.

Assay [2] has as its target T3, human MrgX1 receptor. Kind of assay: Receptor Selection and Amplification Technology (R-SAT) functional assay, transfected NIH3T3 cells. The class given is cell-based. Details: expressed in transfected cells; host or cells: NIH3T3. Particulars: for pEC50 / Human-MrgX1 pEC50: pEC50 = negative log of molar EC50; for Human-MrgX1 Eff(%): percent maximal activation relative to Bam22. How it is done: as §1, §2, §3

Chain of simian MrgX1 receptor (A0A5F7ZSN8 1-322): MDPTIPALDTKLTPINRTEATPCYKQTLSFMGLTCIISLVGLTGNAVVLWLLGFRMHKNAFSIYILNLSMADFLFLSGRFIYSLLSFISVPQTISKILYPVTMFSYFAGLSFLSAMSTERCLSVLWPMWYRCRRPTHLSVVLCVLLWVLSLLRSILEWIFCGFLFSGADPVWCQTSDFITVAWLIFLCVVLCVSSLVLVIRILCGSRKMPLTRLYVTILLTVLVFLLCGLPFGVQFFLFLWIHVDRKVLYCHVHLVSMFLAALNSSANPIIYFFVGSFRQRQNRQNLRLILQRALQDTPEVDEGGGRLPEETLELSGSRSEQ
T3 sequence (Q96LB2 whole entry): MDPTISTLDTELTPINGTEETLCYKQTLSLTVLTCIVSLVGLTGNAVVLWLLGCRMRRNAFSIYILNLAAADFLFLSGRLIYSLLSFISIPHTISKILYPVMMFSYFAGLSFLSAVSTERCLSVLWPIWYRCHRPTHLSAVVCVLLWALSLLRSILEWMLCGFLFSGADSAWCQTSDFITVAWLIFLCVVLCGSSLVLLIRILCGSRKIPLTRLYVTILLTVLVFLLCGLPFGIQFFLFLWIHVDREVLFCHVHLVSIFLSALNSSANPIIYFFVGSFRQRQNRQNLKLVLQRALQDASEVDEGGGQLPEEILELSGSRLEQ
T2 sequence (Q4QXU5 whole entry): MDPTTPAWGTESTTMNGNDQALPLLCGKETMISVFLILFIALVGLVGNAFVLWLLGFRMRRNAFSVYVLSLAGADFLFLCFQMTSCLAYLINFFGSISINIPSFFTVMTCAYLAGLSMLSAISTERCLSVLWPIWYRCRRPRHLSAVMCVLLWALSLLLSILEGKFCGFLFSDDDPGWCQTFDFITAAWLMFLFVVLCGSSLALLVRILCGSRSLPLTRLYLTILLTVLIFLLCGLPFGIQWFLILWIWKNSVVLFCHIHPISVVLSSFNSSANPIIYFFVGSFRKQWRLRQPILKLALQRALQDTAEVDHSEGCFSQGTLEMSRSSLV

For orientation: pEC50 means the EC50 on a negative log10 scale, so that one unit is a factor of ten. Low values mean a high EC50, high ones a low EC50. As for `N=C(N)NCCC[C@@H](C(N)=O)n1c(-c2cccc(Oc3ccccc3)c2)nc2cc(C(=O)N3CCN(c4ccc(F)cc4)CC3)ccc21` [Compound 1, (α^1R)-α-[3-[(aminoiminomethyl)amino]propyl]-5-[[4-(4-fluorophenyl)-1-piperazinyl]carbonyl]-2-(3-phenoxyphenyl)-1H-benzimidazole-1-acetamide], on human MrgX2 receptor, the “Human-MrgX2 pEC50” value is reported as “nr” and the “Human-MrgX2 Eff(%)” value is recorded as −1%. Further, the Emax on simian MrgX1 receptor turned out to be 148%. At simian MrgX2 receptor, the “Monkey-MrgX2 pEC50” value is on record as less than 4.5 and the “Monkey-MrgX2 Eff(%)” value is given as 25%. Further, on human MrgX1 receptor [1], the “MrgX1 pEC50” value is 6.6 and the “MrgX1 Eff %” value came out at 88%. On human MrgX1 receptor [2], the pEC50 was 6.00 and the “Human-MrgX1 Eff(%)” value worked out at 146%.

Turning to `Cc1cccc(N2CCN(C(=O)c3ccc4c(c3)nc(-c3cccc(Oc5ccccc5)c3)n4[C@@H](CCCNC(=N)N)C(N)=O)CC2C)c1` (stereo partly drawn) [Compound 2, (α^1R)-α-[3-[(aminoiminomethyl)amino]propyl]-5-[[3-methyl-4-(3-methylphenyl)-1-piperazinyl]carbonyl]-2-(3-phenoxyphenyl)-1H-benzimidazole-1-acetamide], at human MrgX2 receptor, the “Human-MrgX2 pEC50” value is listed as “nr” and the “Human-MrgX2 Eff(%)” value is given as 17%. Besides, the Emax at simian MrgX1 receptor worked out at 316%. For the same compound, the “Monkey-MrgX2 Eff(%)” value at simian MrgX2 receptor came out at 22%. For the same compound, on human MrgX1 receptor [1], the “MrgX1 pEC50” value worked out at 7.6 and the “MrgX1 Eff %” value turned out to be 92%. Further, at human MrgX1 receptor [2], the pEC50 is 6.20 and the “Human-MrgX1 Eff(%)” value was determined as 220%.

Take `N=C(N)NCCC[C@@H](C(N)=O)n1c(-c2cccc(Oc3ccccc3)c2)nc2cc(C(=O)NCCc3ccccn3)ccc21` [Compound 3, (α^1R)-α-[3-[(aminoiminomethyl)amino]propyl]-2-(3-phenoxyphenyl)-5-[[[2-(2-pyridinyl)ethyl]amino]carbonyl]-1H-benzimidazole-1-acetamide]: on human MrgX2 receptor, the “Human-MrgX2 pEC50” value is reported as “nr” and the “Human-MrgX2 Eff(%)” value was determined as 4%. Also, the Emax at simian MrgX1 receptor turned out to be 160%. At simian MrgX2 receptor, the “Monkey-MrgX2 Eff(%)” value came out at 4%. On human MrgX1 receptor [1], the “MrgX1 pEC50” value worked out at 6.4 and the “MrgX1 Eff %” value is reported as 106%. In addition, at human MrgX1 receptor [2], the negative logarithm of the EC50 (pEC50) was 6.80 and the “Human-MrgX1 Eff(%)” value is 176%.

As for `CN(CCc1ccccn1)C(=O)c1ccc2c(c1)nc(-c1cccc(Oc3ccccc3)c1)n2[C@@H](CCCNC(=N)N)C(N)=O` [Compound 4, (α^1R)-α-[3-[(aminoiminomethyl)amino]propyl]-5-[[methyl[2-(2-pyridinyl)ethyl]amino]carbonyl]-2-(3-phenoxyphenyl)-1H-benzimidazole-1-acetamide], at human MrgX2 receptor, the “Human-MrgX2 pEC50” value was “nr” and the “Human-MrgX2 Eff(%)” value is listed as 46%. In addition, the Emax at simian MrgX1 receptor was 107%. In addition, the “Monkey-MrgX2 Eff(%)” value at simian MrgX2 receptor turned out to be 18%. On human MrgX1 receptor [1], the “MrgX1 pEC50” value was 6.7 and the “MrgX1 Eff %” value amounted to 112%. Besides, at human MrgX1 receptor [2], the pEC50 was 6.00 and the “Human-MrgX1 Eff(%)” value worked out at 325%.

Turning to `COc1ccc(NC(=O)c2ccc3c(c2)nc(-c2cccc(Oc4ccccc4)c2)n3C(CCCNC(=N)N)C(N)=O)cc1` (stereo not drawn) [Compound 27], on human MrgX2 receptor, the “Human-MrgX2 pEC50” value was “nr” and the “Human-MrgX2 Eff(%)” value was 4%. On human MrgX1 receptor [2], the “Human-MrgX1 pEC50” value came out at 6.1 and the “Human-MrgX1 Eff(%)” value was found to be 133%.

On to `CCCCNC(=O)c1ccc2c(c1)nc(-c1cccc(Oc3ccccc3)c1)n2C(CCCNC(=N)N)C(N)=O` (stereo not drawn) [Compound 30], for which, on human MrgX2 receptor, the “Human-MrgX2 pEC50” value is reported as “nr” and the “Human-MrgX2 Eff(%)” value is 11%. Further, at human MrgX1 receptor [2], the “Human-MrgX1 pEC50” value turned out to be 6.2 and the “Human-MrgX1 Eff(%)” value is recorded as 150%.

Consider `N=C(N)NCCCC(C(N)=O)n1c(-c2cccc(Oc3ccccc3)c2)nc2cc(C(=O)Nc3nccs3)ccc21` (stereo not drawn) [Compound 31], for which, at human MrgX2 receptor, the “Human-MrgX2 pEC50” value is reported as “nr” and the “Human-MrgX2 Eff(%)” value turned out to be 6%. Moreover, at human MrgX1 receptor [2], the “Human-MrgX1 pEC50” value is given as 5.6 and the “Human-MrgX1 Eff(%)” value came out at 73%.

The record behind these values is patent US20080249081A1, “COMPOUNDS FOR THE TREATMENT OF PAIN AND SCREENING METHODS THEREFOR” (priority 2006, published 2008).
